According to article PMC6030159 (Scientific Reports, 2018):
Entries after “also recorded” stand apart in the source; their conditions may differ.

What was measured:
MYCN and MAX proteins = experiment: Western blot of MYCN and MAX in SK-N-DZ and Kelly cells; type: cell-based; conditions: 2.5 µM, 17 hours
Experimental: These assays were performed essentially as described in[67],[68]. […] C) MST of labeled MYC (approximately 200 nM) titrated with MYCMI-6 as indicated. Data are shown as mean ± standard deviation of 5 biological repeats. Supplemental Figure S5. Characterization of the binding of MYCMI-6 and other MYC:MAX inhibitory compounds on MYC and different control proteins by surface plasmon resonance (SPR). All sensorgrams are reference surface subtracted. A) SPR assay of MYCMI-6 injected over immobilized MYC in an equilibrium binding experiment where the theoretical Rmax is 23 RU. B) SPR assay of KJ-Pyr-9 injected over immobilized MYC. Theoretical Rmax is 29 RU. C) Sensorgram of MAX SPR assay. MYCMI-6 was injected at various concentrations over immobilized MAX bHLHZip (theoretical Rmax of 24 RU). D) Sensorgram of MAD SPR assay. MYCMI-6 was injected at various concentrations over immobilized GST-MAD bHLHZip (theoretical Rmax of 24 RU). E) Sensorgram of the BCL-XL SPR assay. MYCMI-6 was injected at various concentrations over immobilized BCL-XL (theoretical Rmax of 14 RU). F) Sensorgram of the BSA SPR assay. MYCMI-6 was injected at various concentrations over immobilized BSA (theoretical Rmax of 5 RU). Supplemental Figure S6. Expression of MYCN and MAX proteins after MYCMI-6 treatment in MYCN-amplified neuroblastoma cells. […]

endogenous MYC:MAX = system: T1, endogenous MYC:MAX; experiment: Coimmunoprecipitation of MAX with MYC, MDA-MB231 cells; type: cell-based; conditions: 5 μM, 3 hours post treatment
T1 construct: endogenous in cells; host or cells: MDA-MB231
Experimental: These assays were performed essentially as described in[67],[68]. For further information on immunohistochemistry, and on primers and antibodies, see Supplementary Information.

MAX bHLHZip = MAX bHLHZip (Homo sapiens, UniProt P61244); experiment: MST direct binding to MAX; conditions: 3 μM MYCMI-6, MAX titrated
Chain of MAX bHLHZip (P61244 23-102 limits assumed): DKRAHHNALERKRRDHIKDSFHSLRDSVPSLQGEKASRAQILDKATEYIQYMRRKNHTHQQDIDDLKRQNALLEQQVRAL
Experimental: To determine whether MYCMI-6 binds directly to MYC (or MAX), MST and SPR were applied. The bHLHZip domains of MYC or MAX, respectively (Suppl. Fig. S1C), were titrated and mixed with 3 μM of MYCMI-6.
MST was carried out on a Monolith NT.115 with blue/green filters, kindly provided by Luca Jovine, Karolinska Institutet Huddinge, according to manufacturer’s protocol (NanoTemper). MYCbHLHZip, MAXbHLHZip, BSA and BCL-XL recombinant proteins and compounds were diluted and titrated in PBS supplemented with 0.05% Triton-X-114 or 0.05% Tween-20. Titration of molecules was carried out in 16 PCR tubes into which a fixed concentration of fluorescent molecule was added. The mixture was applied to capillaries (standard treated, NanoTemper), and scanned in the Monolith NT.115 to measure initial fluorescence of molecule. MST was induced and fluorescence was measured during 40 seconds. Double measurements were carried out (MST power of 20% and 40%, or 40% and 60%) for each sample. Delta fluorescence or relative fluorescence of fluorescent molecule normalized to control vehicle was plotted against titrated molecule concentration. The protein labeling kit GREEN-NHS (NanoTemper) was used to label primary amines of proteins according to manufacture’s protocol.

[1] = system: normal IMR-90 and BJ human fibroblasts; experiment: Viable/dead cell counting, normal fibroblasts; type: cell-based; conditions: 12.5 μM, 24 hours
Experimental: Triton-X-114 (Sigma). Truncated p53 core protein was a kind gift from Klas Wiman, CCK, […]
Cell proliferation assays. Cell growth and viability was estimated in triplicates with WST-1 (Roche) or Resazurin sodium salt (Sigma-Aldrich) assays in medium at 37°C and 5% CO 2 for 2 hours after which absorbance or fluorescence, respectively, was measured with an Omega Fluostar (BMG Labtech) in a 96 well plate format. Cell counting was done in 96 well plates with CellTracker Green (ThermoFisher) for 30 min in the incubator, after which DAPI was added for 5 min. Images were taken in the green (FITC) and blue (DAPI) channels using a fluorescence microscope (ImageXpress Micro, Molecular Devices). […] After 16 days, the colonies were stained with 100 µg/ml MTT (Sigma) overnight and colonies were counted.
Immunohistochemistry. Apoptosis was visualized at the single-cell level on tumor cryosections using the TUNEL method using the In Situ Cell Death Detection Fluorescein-Roche kit and analyzed by fluorescence microscopy. […] Cell proliferation and microvascular density (MVD) were evaluated through Ki67 and CD31staining, respectively, on tumor cryosections and detected by immunofluoresence. […] For quantification, areas with positive TUNEL and Ki67 staining were measured using Image J software. For the analysis of MVD, the number of vessel structures per microscopic field was calculated.

MYCN:MAX interaction = system: T2, MYCN:MAX interaction; experiment: isPLA endogenous MYCN:MAX in SK-N-BE(2) cells; type: cell-based; conditions: 2.5 μM, 16 hours
T2 construct: endogenous in cells; host or cells: SK-N-BE(2)
Experimental: The isPLA assay has been described. Antibodies used are listed in Supplementary Information. Briefly, cells were grown on collagen-coated chamber slides (Falcon), and treated with 1–10 μM of compounds, respectively, for 16 hours, then washed twice with PBS and fixed in ice cold methanol for 5–15 min at room temperature. Slides were washed in PBS with 0.05% Tween 20 and incubated in blocking buffer after which isPLA was performed using the Duolink® in situ PLA kit (Sigma-Aldrich) according to the manufacturer’s protocol. DNA was stained with DAPI. Incubation with primary antibodies were performed at +4 °C overnight. Images were taken using an Axiovert 200M inverted microscope (Zeiss) and fluorescent dots were quantified using semi-automated analysis in ImageJ (http://imagej.net) and averaged to number of dots per cell.

CCOc1ccc2nc3cc(/N=N/c4ccc(N)nc4N)ccc3c(N)c2c1 [MYCMI-6]
expression of MYCN and MAX (western blot) (MYCN and MAX proteins): maintaining the expression
coimmunoprecipitation of endogenous MYC:MAX (endogenous MYC:MAX): reduced the MYC:MAX protein interaction
binding to MAX bHLHZip (MST) (MAX bHLHZip): no obvious changes; also recorded: did not bind to MAX
number of viable cells and percentage of dead cells, normal fibroblasts [1]: only marginal effects; also recorded: not cytotoxic
MYCN:MAX interaction (isPLA) (MYCN:MAX interaction): significantly inhibited
